Source: patent US20090215775A1, “Sulphonamido-Substituted Cyclohexyl Sulphones for Treatment of Cancer” (priority 2005, published 2009)

System: Cells expressing Notch (ALL-SIL, DND-41, HPB-ALL or TALL-1)
Assay: Assay for Cell Cycle Arrest (propidium iodide, FACS)
Type: cell-based
Settings: concentrations up to 10 μM; incubation typically 4-8 days; in comparison to untreated controls
Description: Cells expressing Notch (ALL-SIL, DND-41, HPB-ALL or TALL-1) (Weng et al, Science, 306 (2004), 269-71) are incubated in the presence or absence of a compound of the instant invention (e.g. the compound of Example 47 below) at concentrations up to 10 μM. At the end of the incubation (typically 4-8 days), the cells are collected, fixed in 70% ethanol on ice for >2 hours, washed, then labelled for 15 min at 37° C. with propidium iodide (0.2 mg/ml) (PI) in the presence of 0.1% Triton X100 and 0.2 mg/ml RNase and subjected to FACS analysis.

O=S(=O)(N[C@H]1CC[C@@](c2cc(F)ccc2F)(S(=O)(=O)c2ccc(Cl)cc2)CC1)C(F)(F)F [Example 47, trifluoromethanesulfonic acid, N-[4-(4-chlorobenzenesulfonyl)-4-(2,5-difluorophenyl)-cyclohexyl]-amide]
G2- and S-phase populations (FACS analysis): severe loss of G2- and S-phase populations
